Results: patent publication US20030207932A1, “Compositions that prevent post-traumatic hyperpigmentation and methods related thereto” (priority 2002, published 2003)

System: patients with a strong genetic predisposition to post traumatic hyperpigmentation
Assay: Proof of concept in patients predisposed to post traumatic hyperpigmentation
Type: in vivo, human
Conditions: five subjects; oral zafirlukast alone, 20 mg two times daily, two weeks prior and thereafter for two months
Protocol: The patients were known to have this predisposition because prior trauma pigmented areas. Five of the subjects were given the oral composition zafirlukast, two weeks prior and thereafter for two months. The dosage was 20 mg two time daily. The other five individuals were give the same medication that the same dosage for the same amount of time, but in addition, were also given a topical preparation.
Five further patients were then selected with obvious genetic predisposition to post traumatic hyperpigmentation. They were given only the topical composition after their surgical procedure. The topical composition was applied three times daily for two months after the procedure. […] This was completely unexpected. The topical composition, as administered, is described in Table 1 below.

Structure (SMILES): COc1cc(C(=O)NS(=O)(=O)c2ccccc2C)ccc1Cc1cn(C)c2ccc(NC(=O)OC3CCCC3)cc12 [zafirlukast]
- development of hyperpigmentation: In no case did hyperpigmentation develop
